Results published in patent US11458212B2, “Molecular imaging of cancer cells in vivo” (H. Lee Moffitt Cancer Center and Research Institute, Inc., priority 2011, dated 2022).
“Also recorded” adds a separate entry of the source.

Legend:
TLR2 [1] = target: T1, TLR2 (Homo sapiens, UniProt O60603); test: In vitro TLR2 functional bioassay (NF-κB luciferase, HEK293/hTLR2 cells); format: cell-based; design: host or cells: HEK293 stably transfected with pUNO-hTLR2, transiently transfected with the pNifty-Luc reporter
From the text: In Vitro TLR2 Functional Bioassay The in vitro TLR2 functional bioassay was developed and optimized for use in screening soluble compound libraries to identify both TLR2 agonists and antagonists. In this study, the TLR2 functional bioassay was used as a fast high throughput screening to identify TLR2 agonist ligands by measuring the inducing activity of NF-κB. HEK293/hTLR2 cells, highly overexpressing human TLR2, were used along with the parental HEK293, cells as a negative control. Cells were seeded at a density of 40,000 per well using a WellMate® Microplate dispenser (Thermo Fischer Scientific/Matrix) in black 96-well plates with opaque white wells (Perkin Elmer Wallac, Waltham, Mass.) and then incubated at 37° C. On day 2, the cells were transiently transfected with pNifty-Luc (InvivoGen), an NF-κB inducible reporter plasmid expressing the luciferase reporter gene (Zuany-Amorim, C., J., et al. Nat Rev Drug Discov, 2002. 1(10):797-807), using an optimized 4:1 ratio by volume of Fugene® HD Transfection Reagent (Roche Applied Science, Indianapolis, Ind.) to pNifty-Luc plasmid DNA (1 μg/mL). […] On day 4 after 24 hrs of peptide stimulation, luciferase induced activity by the induction of NF-κB was measured. Media was aspirated from the wells using an ELx405 Select plate washer (BioTek, Winooski, Vt.), 150 μg/mL D-luciferin (Gold Biotechnology, St. Louis, Mo.) was dispensed using the microplate dispensor; the plates were incubated at 37° C. for 5 min. The luminescence intensity was measured using the standard luminescence protocol on a Victor™ X4 plate-reader equipped with a plate stacker for readout of multiple plates at a time (PerkinElmer, Waltham, Mass.). For each in vitro TLR2 bioassay, at least three different experiments were performed in triplicate (n=3+). Data were analyzed with GraphPad Prism software and curves were generated with the appropriate nonlinear fit regression analysis.
The in vitro TLR2 functional bioassay was developed and optimized for use in high-throughput screening of soluble compound libraries to identify both TLR2 agonists and antagonists. The bioassay measures the induction of NF-κB signaling via TLR2 in HEK-293/hTLR2 cells and parental HEK-293 cells as a negative control. Cells were seeded at a density of 40,000 per well using a WellMate Microplate dispenser (Thermo Fisher Scientific/Matrix) in black 96-well plates with opaque white wells (PerkinElmer, Waltham, Mass.) and then incubated at 37° C. On day 2, the cells were transiently transfected with pNifty-Luc (InvivoGen, San Diego, Calif.), an NF-κB inducible reporter plasmid expressing the luciferase reporter gene[28] using an optimized 4:1 ratio by volume of FugeneHD Transfection Reagent (Promega, Madison, Wis.) to pNifty-Luc plasmid DNA (1 μg/mL). […] […] On day 4 after 24 h of peptide stimulation, luciferase induced activity by the induction of NF-κB was measured. Media was aspirated from the wells using an ELx405 Select CW plate washer (BioTek, Winooski, Vt.), 150 μg/mL D-luciferin (Gold Biotechnology, St. Louis, Mo.) was dispensed using the microplate dispensor; the plates were incubated at 37° C. for 5 min. The luminescence intensity was measured using the standard luminescence protocol on a Victor X4 Multilabel plate reader equipped with a plate stacker for readout of multiple plates at a time (PerkinElmer, Waltham, Mass.). […] Data were analyzed with GraphPad Prism software and curves were generated with the appropriate nonlinear fit regression analysis.
Target sequence in this assay (O60603 21-784): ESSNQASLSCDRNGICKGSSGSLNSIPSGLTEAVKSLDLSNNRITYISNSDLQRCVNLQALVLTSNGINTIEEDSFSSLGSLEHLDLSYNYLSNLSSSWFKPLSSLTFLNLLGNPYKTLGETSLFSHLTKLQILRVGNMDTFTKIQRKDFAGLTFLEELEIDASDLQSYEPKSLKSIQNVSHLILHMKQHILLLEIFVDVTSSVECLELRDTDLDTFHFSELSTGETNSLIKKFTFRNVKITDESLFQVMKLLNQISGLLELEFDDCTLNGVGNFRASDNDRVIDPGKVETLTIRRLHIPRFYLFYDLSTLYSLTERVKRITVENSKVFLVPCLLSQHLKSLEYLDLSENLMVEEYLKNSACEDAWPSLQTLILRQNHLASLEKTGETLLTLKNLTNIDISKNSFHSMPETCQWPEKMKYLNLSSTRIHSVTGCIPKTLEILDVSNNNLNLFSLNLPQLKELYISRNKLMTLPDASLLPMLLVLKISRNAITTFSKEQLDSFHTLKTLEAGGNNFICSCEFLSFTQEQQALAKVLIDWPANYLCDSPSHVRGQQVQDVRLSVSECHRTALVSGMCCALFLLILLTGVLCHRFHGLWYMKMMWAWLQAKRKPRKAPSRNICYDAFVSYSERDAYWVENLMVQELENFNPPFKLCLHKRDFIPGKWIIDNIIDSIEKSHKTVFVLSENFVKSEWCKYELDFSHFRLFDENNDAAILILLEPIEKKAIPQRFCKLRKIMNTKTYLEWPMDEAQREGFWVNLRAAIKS
Target sequence in this assay (Q9Y2C9 32-796 partner): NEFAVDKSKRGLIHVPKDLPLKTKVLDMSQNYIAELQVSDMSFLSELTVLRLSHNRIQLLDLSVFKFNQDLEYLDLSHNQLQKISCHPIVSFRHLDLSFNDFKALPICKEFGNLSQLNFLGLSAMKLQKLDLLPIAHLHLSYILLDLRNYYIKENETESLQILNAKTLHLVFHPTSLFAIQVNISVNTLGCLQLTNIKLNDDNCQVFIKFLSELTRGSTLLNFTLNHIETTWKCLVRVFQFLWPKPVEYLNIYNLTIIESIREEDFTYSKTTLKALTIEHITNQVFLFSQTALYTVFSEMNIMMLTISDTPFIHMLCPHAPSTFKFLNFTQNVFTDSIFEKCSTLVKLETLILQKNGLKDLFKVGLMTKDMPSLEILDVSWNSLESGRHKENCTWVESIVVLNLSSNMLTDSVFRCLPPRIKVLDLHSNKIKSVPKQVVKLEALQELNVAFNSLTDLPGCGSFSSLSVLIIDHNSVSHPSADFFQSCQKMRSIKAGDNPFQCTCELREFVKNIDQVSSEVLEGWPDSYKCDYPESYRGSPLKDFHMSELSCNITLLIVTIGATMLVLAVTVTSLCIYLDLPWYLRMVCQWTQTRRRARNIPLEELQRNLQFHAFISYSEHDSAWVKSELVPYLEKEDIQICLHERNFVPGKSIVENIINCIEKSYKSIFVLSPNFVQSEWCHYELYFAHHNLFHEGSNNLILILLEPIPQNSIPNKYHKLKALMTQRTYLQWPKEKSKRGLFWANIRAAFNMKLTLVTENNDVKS

TLR2 [2] = target: T1, TLR2; test: In cyto europium TRF saturation binding assay; design: ATCC (SU.86.86 CRL-1837, Capan-I HTB-79); SU.86.86 and Capan-I express TLR2 endogenously
Protocol: TRF binding assays were performed as previously described (see Xu, L., et al. Mol Cancer Ther. 2009 8(8):2356-65).
Europium TRF binding assays were performed as previously described with slight modifications using 3 cell lines that express TLR2: HEK-293/hTLR2, SU.86.86, and Capan-I.[23a, 23d, 29] The Capan-I and SU.86.86 cells were plated in 96-well black plates with white opaque wells (PerkinElmer); while the HEK-293/hTLR2 cells were plated on 96-well poly-D-lysine coated plates (Sigma-Aldrich) to aid in the attachment of these cells to the plate. Cells were grown in the 96-well plates for 2 days reaching approximately 80% confluency. Both types of plates were evaluated for nonspecific binding and background signal.
For saturation binding, increased concentrations of the labeled ligand, compound 11 (Table 8), were used to determine total binding to TLR2. Non-specific binding was determined in the presence of 1 μM Pam2CSK4. On the day of the experiment the medium was aspirated. 50 μL of binding buffer was added to the total binding wells and 50 μL of Pam2CSK4 was added to the non-specific wells and then allowed to incubate for 30 m at 37° C. Next, 50 μL of the serial dilutions of […] were added and then allowed to incubate for 1 h at 37° C. Cells were washed three times to remove unbound ligand. Next, 100 μL of DELFIA Enhancement Solution (PerkinElmer) was added to each well. Cells were incubated for 30 min at 37° C. prior to reading. The plates were read on the VICTOR X4 Multilabel plate reader using the standard europium TRF protocol (340 nm excitation, […] and […] collection at 615 nm). To determine the mean Kd, statistical analysis was performed using GraphPad Prism software.
Target sequence in this assay (O60603 21-784): as the sequence (O60603 21-784) above
Target sequence in this assay (Q9Y2C9 32-796 partner): as the sequence (Q9Y2C9 32-796 partner) above

[3] = tested on: orthotopic pancreatic tumors; test: FL guided intraoperative surgical removal of orthotopic pancreatic tumors; format: in vivo, mice; conditions: 24 h post-injection, data not shown
From the text: Improved survival rates for pancreatic cancer are associated with the complete surgical resection of tumor resulting in a tumor-free margin (R0). New methods employing intraoperative fluorescence (FL) guided tumor detection could lead to increased R0 margins and improved survival. We have reported Toll-like receptor 2 (TLR2) as a bona fide cell-surface marker for pancreatic adenocarcinoma. We then developed a high-affinity TLR2 binding ligand conjugated to a near-infrared (NIR) fluorescent dye, IR800CW, as a targeted molecular imaging probe for the intraoperative detection of surgical margins. To evaluate the in vivo pharmacokinetics and biodistribution of compound 13, FL imaging was performed on multiple optical imaging systems (PerkinElmer IVIS 200 and FMT2500XL, and ART Optix MX3) using TLR2 expressing pancreatic tumor xenograft mouse models (subcutaneous and orthotopic). […] Prior to surgery, the orthotopic pancreatic tumor volumes were monitored weekly and measured in vivo by 3D ultrasound imaging. […]

TLR2 [4] = target: T1, TLR2; test: In cyto europium TRF competition binding assay; design: ATCC (SU.86.86 CRL-1837, Capan-I HTB-79); SU.86.86 and Capan-I express TLR2 endogenously
Target sequence in this assay (O60603 21-784): as the sequence (O60603 21-784) above
Target sequence in this assay (Q9Y2C9 32-796 partner): as the sequence (Q9Y2C9 32-796 partner) above
Protocol: Competition binding assays were performed to test the TLR2 binding specificity of the test ligands using 2 cell lines: HEK-293/hTLR2 and SU.86.86. Cells were grown in 96-well plates for 2 days reaching approximately 80% confluency. On the day of the experiment, the cell culture media was aspirated and 50 μL of non-labeled test ligand was added in a series of decreasing concentrations (1 μM to 0.01 nM) followed by 50 μL of the competing Eu-labeled ligand 10 at a fixed concentration of 90 nM. Cells were incubated with labeled and unlabeled ligands for 1 h at 37° C. […] Cells were incubated for 30 min at 37° C. prior to reading. The plates were read on PerkinElmer VICTOR X4 Multilabel reader using the standard europium TRF protocol. […]

[5] = tested on: TLR2 expressing tumor xenografts (SU.86.86 cells); test: In vivo TLR2 selectivity / tumor retention fluorescence imaging; design: species or system nude mice; conditions: for retention of fluorescence signal in tumor: 24 h post injection
Protocol: Female athymic nude mice 6-8 weeks old (Harlan) bearing human pancreatic tumor xenografts consisting of SU.86.86 cells on the right flank were used for this study. Mouse weights and tumor volumes were determined using caliper measurements and the formula: volume (mm3)=(length×width^2)/2. Images were acquired when the tumors reached an average size of 500 mm^3. For the blocked group, a co-injection of 100 nmol/kg of the fluorescently labeled compound 13 plus 2 μmol/kg Pam2CSK4 (a 20-fold excess) was administered via tail vein injection; for the unblocked group, 100 nmol/kg 13 was administered. Fluorescence images were acquired at time 0 and 24 h using the Caliper Xenogen IVIS200 system (PerkinElmer) with the 710-760 nm excitation and 810-875 nm emission filter set. The fluorescence was quantified using Living Image software, in which the quantified signals were corrected for both instrument and mouse background subtractions. The quantified fluorescence was then plotted using GraphPad Prism software and underwent statistical analysis using Student's t-test.
For further confirmation of ligand 13 specificity for TLR2, ex vivo fluorescence imaging and histological analyses were performed on the tumors. For histological analyses the samples were fixed in 10% formalin solution, processed, embedded, sectioned and either H&E stained for the presence of tumor or underwent IHC staining using TLR2 antibody (Abcam #ab24192).

[6] = tested on: TLR2 expressing tumor xenografts (SU.86.86 cells); test: as above; design: species or system nude mice
TLR2 [7] = target: T1, TLR2; conditions: 95° C. for 30 min; cited from earlier work
Target sequence in this assay (O60603 21-784, species assumed): as the sequence (O60603 21-784) above

CCCCCCCCCCCCCCCC(=O)OC[C@H](CSC[C@H](NC(=O)COCC(=O)NCCCOCCOCCOCCCNC(=O)CN(CCN(CCN(CC(=O)O)CC(=O)O)CC(=O)O)CC(=O)O)C(=O)NCC(=O)N[C@H](CO)C(=O)NCCCOCCOCCOCCCNC(=O)COCC(N)=O)OC(=O)CCCCCCCCCCCCCCC [Compound 11]
decrease in potency compared to 10 (TLR2 [1]): 10 fold
Bmax (TLR2 [2]; Capan-I cells): 951,170 AFU
Bmax (TLR2 [2]; HEK-293/hTLR2 cells): 114,271 AFU
Bmax (TLR2 [2]; SU.86.86 cells): 269,878 AFU
Kd (TLR2 [2]; cell line not stated): 30 nM

CCCCCCCCCCCCCCCC(=O)OC[C@H](CSC[C@H](NC(=O)COCC(=O)NCCCOCCOCCOCCCNC(=O)CCSC1CC(=O)N(CCNC(=O)CCCCC[N+]2=C(/C=C/C3=C(Oc4ccc(S(=O)(=O)[O-])cc4)C(=C/C=C4/N(CCCCS(=O)(=O)O)c5ccc(S(=O)(=O)O)cc5C4(C)C)/CCC3)C(C)(C)c3cc(S(=O)(=O)O)ccc32)C1=O)C(=O)NCC(=O)N[C@H](CO)C(=O)NCCCOCCOCCOCCCNC(=O)COCC(N)=O)OC(=O)CCCCCCCCCCCCCCC (stereo partly drawn) [Compound 13, IRDye800CW-Mpr-PEGO-Cys(S-[2,3-bis(palmitoyl)oxy-(R)-propyl])-Gly-DSer-PEGO-NH2]
intraoperative fluorescence detection of tumor [3]: intraoperative detection of pancreatic cancer were demonstrated
EC50 (TLR2 [1]; dose-response 0.001 ng/mL to 10 μg/mL, read-out: TLR2 Agonist Activity EC50): 34 nM
Ki (TLR2 [4]; SU.86.86 cells, 90 nM compound 11): 67 nM
Ki (TLR2 [4]; competitive binding assay, cell line not stated): 11 nM
mean tumor fluorescence unblocked / blocked ([5]; 24 h, 100 nmol/kg 13 ± 2 μmol/kg Pam2CSK4 (20-fold excess), n=8): 1.94 fold
effect of blocking with excess unlabeled ligand on tumor signal ([5]; 24 h, p<0.001): significantly decreased FL signal in the tumor; also recorded: significant reduction in the tumor fluorescence
retention of fluorescence signal in tumor [5]: Fluorescence signal was present in TLR2 expressing pancreatic tumor xenografts; also recorded: retention of fluorescence signal in the tumor
retention of fluorescence signal in tumor ([5]; listed as LiCor IRDye800CW/T-02 conjugate): retained in the tumor at 24 h post injection while the agent had cleared from the animal except for the kidneys
duration of retention in the SU.86.86 tumor ([6]; 10 nmol/Kg dosage): over 96 h
clearance from the kidney ([6]; mouse, in vivo): cleared from the kidney within days of the injection but was retained longer in the tumor
uptake in orthotopic pancreatic tumor xenografts ([6]; orthotopic): taken into and retained in orthotopic pancreatic tumor xenografts
duration of FL signal retention in TLR2 expressing tumor xenografts ([6]; post-injection, dose not stated): up to 96 h

B1: SAA: recombinant human Apo-SAA1 (Peprotech) derived from E. coli; serum amyloid A, acute-phase protein, TLR2 agonist (protein)
chain: MRSFFSFLGEAFDGARDMWRAYSDMREANYIGSDKYFHARGNYDAAKRGPGGVWAAEAISDRENIQRFFGHGAEDSLADQAANEWGRSGKDPNHFRPAGLPEKY
NF-κB induced luciferase activity (luminescence) in screening (TLR2 [1]; 1 μg/mL, SAA at 1 and 10 μg/mL): low potency
loss of activity of heat-treated SAA (TLR2 [7]): 95%
